Test results as given in patent US20150241429A1, “IRHOM2 INHIBITION FOR THE TREATMENT OF COMPLEMENT MEDIATED DISORDERS” (HOSPITAL FOR SPECIAL SURGERY, priority 2012, published 2015).

Legend:
macrophages = assay: Phagocytosis of IgG-opsonized red blood cells by macrophages; format: cell-based; settings: inhibition of TACE with MM
Procedure: FIG. 5. (A) TACE-mediated cleavage of CD62L on the cell surface of freshly isolated human neutrophils (representative of 2 experiments). Surface expression of CD62L was assessed by flow cytometry following stimulation with 1 μg/mL of C5a or 25 ng/mL PMA for 20 min in the presence or absence of Marimastat (MM). […] Opsonized sheep red blood cells were stained with CFSE and total fluorescence intensity (TFI) was measured by flow cytometry, n=3, mean+/−SEM; * indicates p>0.05. (C) Release of reactive oxygen species by human monocytes when stimulated with C5a in the presence or absence of Marimastat. ROS was quantified by FACS by measuring the mean intensity of the ROS-reactive dye DHR. […] The Fc domains of pathogenic IgG initiate tissue damage by binding FcγR on effector cells and by activating complement, and FcγRs are critical for the pathogenesis of inflammatory arthritis in the K/B×N serum model (Ji et al., 2002a).

human monocytes = assay: C5a-stimulated oxidative burst (ROS release) in human monocytes; format: cell-based; settings: C5a in presence or absence of Marimastat, ROS by FACS (DHR)
Procedure: FIG. 5. (A) TACE-mediated cleavage of CD62L on the cell surface of freshly isolated human neutrophils (representative of 2 experiments). Surface expression of CD62L was assessed by flow cytometry following stimulation with 1 μg/mL of C5a or 25 ng/mL PMA for 20 min in the presence or absence of Marimastat (MM). (B) Quantification of total sheep red blood cells phagocytosed by wild type or Tace−/− bone marrow macrophages. Opsonized sheep red blood cells were stained with CFSE and total fluorescence intensity (TFI) was measured by flow cytometry, n=3, mean+/−SEM; * indicates p>0.05. (C) Release of reactive oxygen species by human monocytes when stimulated with C5a in the presence or absence of Marimastat. ROS was quantified by FACS by measuring the mean intensity of the ROS-reactive dye DHR. […] The Fc domains of pathogenic IgG initiate tissue damage by binding FcγR on effector cells and by activating complement, and FcγRs are critical for the pathogenesis of inflammatory arthritis in the K/B×N serum model (Ji et al., 2002a).

iRhom2 = iRhom2 expression in ex vivo cultures of RA synovial macrophages; format: cell-based, human; settings: RA synovial macrophages incubated overnight ± etanercept, n=8
Procedure: FIG. 2. Production of TNFα and other pro-inflammatory molecules is enhanced by TNFα shedding. (A) Quantification of mRNA levels of the indicated genes by qPCR following 30 min pre-treatment with 10 μg/ml etanercept and stimulation with C5a (representative of 3 experiments). (B) qPCR of iRhom2 mRNA in human monocytes treated for the indicated time periods with hTNFα (representative of 4 experiments). (C) Relative iRhom2 expression in RA synovial macrophages compared to macrophages from normal control patients, n=7 for control, and n=8 for RA patients (Nonparametric Mann-Whitney U test) (Gordon et al., 2012). (D) iRhom2 expression in synovial macrophages from RA patients following incubation overnight±etanercept, shown as percent of expression in freshly isolated cells, n=8. […] (F) Decreased TNFα release from C5a, IC and IC+C5a-stimulated cells treated with iR2 siRNA or TACE siRNA compared to untreated controls (representative of 3 independent experiments, mean±s.d. of samples stimulated in duplicates). *: p<0.05.
This, in turn, would also reduce the production of TNFα-dependent cytokines and of iRhom2, a crucial positive regulator of TACE (Adrain et al., 2012; McIlwain et al., 2012; Siggs et al., 2012).

| Compound | opsonization (internalization of IgG-opsonized red blood cells) (macrophages) | C5a-stimulated oxidative burst (human monocytes) | iRhom2 expression (iRhom2) |
| --- | --- | --- | --- |
| CNC(=O)[C@@H](NC(=O)[C@H](CC(C)C)[C@H](O)C(=O)NO)C(C)(C)C [MM, Marimastat] | did not alter | did not alter | – |
| etanercept | – | – | substantially reduced |
